# Measured values published in paper PMC6748410, “A phase 2 study of an oral mTORC1/mTORC2 kinase inhibitor (CC-223) for non-pancreatic neuroendocrine tumors with or without carcinoid symptoms” (PLoS ONE, 2019).
# Legend:
# [1] = Treatment-related adverse events and tolerability (CTCAE v4.0) in patients with NET; format: in vivo
# Experimental: CC-223 capsules were taken orally once daily in continuous 28-day cycles. An initial cohort started CC-223 at a dose of 45 mg; this was the maximum tolerated dose (MTD) established in phase 1 but, after observing a high rate of dose adjustments due to toxicity among patients with NET, a second cohort started CC-223 at 30 mg. To mitigate toxicity, dosage could be adjusted with either short interruptions, dose level reductions, or every-other-day administration. Treatment was permanently discontinued for disease progression, unmanageable toxicity, patient withdrawal of consent, or other reasons specified by the protocol as requiring study withdrawal.
# Baseline assessments were completed within 28 days prior to first dose of CC-223. Drug tolerability was continuously evaluated until 28 days after the last dose, using clinical event and laboratory test monitoring comprising a conventional hematologic and coagulation (if taking anti-coagulants) panel; serum electrolytes; fasting blood glucose (this also included daily self-monitoring with finger stick samples for the first month and for longer if necessary), HbA1c, insulin, and c-peptide; liver enzymes; serum creatinine; and protein. Others included serum uric acid, amylase and lipase, lipoproteins, thyroid function tests, creatine kinase, and immunoglobulins including T-cell subsets (CD4+ and CD8+). We also performed serial triplicate electrocardiograms (ECGs), periodic left ventricular ejection fraction estimations (echo or multiple gated acquisition [MUGA]), regular physical exams and vital sign measurements (heart rate, blood pressure, respiratory rate, and temperature). Adverse events were coded with Medical Dictionary for Regulatory Activities (MedDRA) version 19.0. Severity of adverse events was classified using the National Cancer Institute Common Terminology Criteria for Adverse Events (CTCAE) version 4.0. A safety review committee provided study oversight.
# [2] = test system: human carcinoid xenografts that secrete serotonin; design: method as in PMID 28864682; conditions: mice bearing human carcinoid xenografts; cited from earlier work
# [3] = 30 mg starting dose (n = 23), any grade
# [4] = 45 mg starting dose (n = 24), any grade
compound,measurement,setting,value
CO[C@H]1CC[C@H](N2C(=O)CNc3ncc(-c4ccc(C(C)(C)O)nc4)nc32)CC1 [CC-223],Patients requiring 1 dose reduction,[1]; 30 mg group (n = 23),11 patients
same,Patients requiring 2 dose reductions,[1]; 30 mg group (n = 23),7 patients
same,Patients requiring more than 2 dose reductions,[1]; 30 mg group (n = 23),0 patients
same,Treatment-related adverse event: AST increased,[1]; [3],3 (13.0) n (%)
same,Treatment-related adverse event: Abdominal pain,[1]; [3],2 (8.7) n (%)
same,Treatment-related adverse event: Asthenia,[1]; [3],7 (30.4) n (%)
same,Treatment-related adverse event: Blood creatinine increased,[1]; [3],4 (17.4) n (%)
same,Treatment-related adverse event: Decreased appetite,[1]; [3],4 (17.4) n (%)
same,Treatment-related adverse event: Dehydration,[1]; [3],4 (17.4) n (%)
same,Treatment-related adverse event: Diarrhea,[1]; [3],17 (73.9) n (%)
same,Treatment-related adverse event: Dry mouth,[1]; [3],2 (8.7) n (%)
same,Treatment-related adverse event: Dysgeusia,[1]; [3],3 (13.0) n (%)
same,Treatment-related adverse event: Fatigue,[1]; [3],17 (73.9) n (%)
same,Treatment-related adverse event: Hyperglycemia,[1]; [3],5 (21.7) n (%)
same,Treatment-related adverse event: Maculopapular rash,[1]; [3],3 (13.0) n (%)
same,Treatment-related adverse event: Malaise,[1]; [3],3 (13.0) n (%)
same,Treatment-related adverse event: Mucosal inflammation,[1]; [3],3 (13.0) n (%)
same,Treatment-related adverse event: Nausea,[1]; [3],6 (26.1) n (%)
same,Treatment-related adverse event: Pruritus,[1]; [3],7 (30.4) n (%)
same,Treatment-related adverse event: Rash,[1]; [3],6 (26.1) n (%)
same,Treatment-related adverse event: Rash macular,[1]; [3],2 (8.7) n (%)
same,Treatment-related adverse event: Stomatitis,[1]; [3],11 (47.8) n (%)
same,Treatment-related adverse event: Vomiting,[1]; [3],2 (8.7) n (%)
same,Patients requiring 1 dose reduction,[1]; 45 mg group (n = 24),3 patients
same,Patients requiring more than 2 dose reductions,[1]; 45 mg group (n = 24),2 patients
same,Tolerability in the NET cohort,[1]; 45 mg once daily,not well-tolerated
same,Treatment-related adverse event: AST increased,[1]; [4],2 (8.3) n (%)
same,Treatment-related adverse event: Abdominal pain,[1]; [4],3 (12.5) n (%)
same,Treatment-related adverse event: Asthenia,[1]; [4],4 (16.7) n (%)
same,Treatment-related adverse event: Blood creatinine increased,[1]; [4],3 (12.5) n (%)
same,Treatment-related adverse event: Decreased appetite,[1]; [4],8 (33.3) n (%)
same,Treatment-related adverse event: Dehydration,[1]; [4],4 (16.7) n (%)
same,Treatment-related adverse event: Diarrhea,[1]; [4],19 (79.2) n (%)
same,Treatment-related adverse event: Dry mouth,[1]; [4],5 (20.8) n (%)
same,Treatment-related adverse event: Dysgeusia,[1]; [4],5 (20.8) n (%)
same,Treatment-related adverse event: Fatigue,[1]; [4],14 (58.3) n (%)
same,Treatment-related adverse event: Hyperglycemia,[1]; [4],8 (33.3) n (%)
same,Treatment-related adverse event: Maculopapular rash,[1]; [4],9 (37.5) n (%)
same,Treatment-related adverse event: Malaise,[1]; [4],4 (16.7) n (%)
same,Treatment-related adverse event: Mucosal inflammation,[1]; [4],3 (12.5) n (%)
same,Treatment-related adverse event: Nausea,[1]; [4],12 (50.0) n (%)
same,Treatment-related adverse event: Pruritus,[1]; [4],12 (50.0) n (%)
same,Treatment-related adverse event: Rash,[1]; [4],12 (50.0) n (%)
same,Treatment-related adverse event: Rash macular,[1]; [4],4 (16.7) n (%)
same,Treatment-related adverse event: Stomatitis,[1]; [4],14 (58.3) n (%)
same,Treatment-related adverse event: Vomiting,[1]; [4],5 (20.8) n (%)
same,Patients with one or more serious adverse event related to CC-223,[1]; 8 of 47 patients,17%
same,Patients who remained on the dose initially assigned,[1]; 12 of 47 patients,26%
same,Treatment-related adverse event: AST increased,"[1]; Any dose (N = 47), Grade 3",2 (4.3) n (%)
same,Treatment-related adverse event: Abdominal pain,"[1]; Any dose (N = 47), Grade 3",1 (2.1) n (%)
same,Treatment-related adverse event: Asthenia,"[1]; Any dose (N = 47), Grade 3",3 (6.4) n (%)
same,Treatment-related adverse event: Blood creatinine increased,"[1]; Any dose (N = 47), Grade 3",1 (2.1) n (%)
same,Treatment-related adverse event: Decreased appetite,"[1]; Any dose (N = 47), Grade 3",1 (2.1) n (%)
same,Treatment-related adverse event: Dehydration,"[1]; Any dose (N = 47), Grade 3",1 (2.1) n (%)
same,Treatment-related adverse event: Diarrhea,"[1]; Any dose (N = 47), Grade 3",18 (38.3) n (%)
same,Treatment-related adverse event: Dry mouth,"[1]; Any dose (N = 47), Grade 3",0 n (%)
same,Treatment-related adverse event: Dysgeusia,"[1]; Any dose (N = 47), Grade 3",0 n (%)
same,Treatment-related adverse event: Fatigue,"[1]; Any dose (N = 47), Grade 3",10 (21.3) n (%)
same,Treatment-related adverse event: Hyperglycemia,"[1]; Any dose (N = 47), Grade 3",0 n (%)
same,Treatment-related adverse event: Maculopapular rash,"[1]; Any dose (N = 47), Grade 3",3 (6.4) n (%)
same,Treatment-related adverse event: Malaise,"[1]; Any dose (N = 47), Grade 3",0 n (%)
same,Treatment-related adverse event: Mucosal inflammation,"[1]; Any dose (N = 47), Grade 3",0 n (%)
same,Treatment-related adverse event: Nausea,"[1]; Any dose (N = 47), Grade 3",1 (2.1) n (%)
same,Treatment-related adverse event: Pruritus,"[1]; Any dose (N = 47), Grade 3",2 (4.3) n (%)
same,Treatment-related adverse event: Rash,"[1]; Any dose (N = 47), Grade 3",1 (2.1) n (%)
same,Treatment-related adverse event: Rash macular,"[1]; Any dose (N = 47), Grade 3",1 (2.1) n (%)
same,Treatment-related adverse event: Stomatitis,"[1]; Any dose (N = 47), Grade 3",5 (10.6) n (%)
same,Treatment-related adverse event: Vomiting,"[1]; Any dose (N = 47), Grade 3",2 (4.3) n (%)
same,Treatment-related adverse event: AST increased,"[1]; Any dose (N = 47), any grade",5 (10.6) n (%)
same,Treatment-related adverse event: Abdominal pain,"[1]; Any dose (N = 47), any grade",5 (10.6) n (%)
same,Treatment-related adverse event: Asthenia,"[1]; Any dose (N = 47), any grade",11 (23.4) n (%)
same,Treatment-related adverse event: Blood creatinine increased,"[1]; Any dose (N = 47), any grade",7 (14.9) n (%)
same,Treatment-related adverse event: Decreased appetite,"[1]; Any dose (N = 47), any grade",12 (25.5) n (%)
same,Treatment-related adverse event: Dehydration,"[1]; Any dose (N = 47), any grade",8 (17.0) n (%)
same,Treatment-related adverse event: Diarrhea,"[1]; Any dose (N = 47), any grade",36 (76.6) n (%)
same,Treatment-related adverse event: Dry mouth,"[1]; Any dose (N = 47), any grade",7 (14.9) n (%)
same,Treatment-related adverse event: Dysgeusia,"[1]; Any dose (N = 47), any grade",8 (17.0) n (%)
same,Treatment-related adverse event: Fatigue,"[1]; Any dose (N = 47), any grade",31 (66.0) n (%)
same,Treatment-related adverse event: Hyperglycemia,"[1]; Any dose (N = 47), any grade",13 (27.7) n (%)
same,Treatment-related adverse event: Maculopapular rash,"[1]; Any dose (N = 47), any grade",12 (25.5) n (%)
same,Treatment-related adverse event: Malaise,"[1]; Any dose (N = 47), any grade",7 (14.9) n (%)
same,Treatment-related adverse event: Mucosal inflammation,"[1]; Any dose (N = 47), any grade",6 (12.8) n (%)
same,Treatment-related adverse event: Nausea,"[1]; Any dose (N = 47), any grade",18 (38.3) n (%)
same,Treatment-related adverse event: Pruritus,"[1]; Any dose (N = 47), any grade",19 (40.4) n (%)
same,Treatment-related adverse event: Rash,"[1]; Any dose (N = 47), any grade",18 (38.3) n (%)
same,Treatment-related adverse event: Rash macular,"[1]; Any dose (N = 47), any grade",6 (12.8) n (%)
same,Treatment-related adverse event: Stomatitis,"[1]; Any dose (N = 47), any grade",25 (53.2) n (%)
same,Treatment-related adverse event: Vomiting,"[1]; Any dose (N = 47), any grade",7 (14.9) n (%)
same,Most common TRAEs: asthenia,"[1]; any grade, n = 47",23%
same,Most common TRAEs: decreased appetite,"[1]; any grade, n = 47",26%
same,Most common TRAEs: diarrhea,"[1]; any grade, n = 47",77%
same,Most common TRAEs: fatigue,"[1]; any grade, n = 47",66%
same,Most common TRAEs: hyperglycemia,"[1]; any grade, n = 47",28%
same,Most common TRAEs: maculopapular rash,"[1]; any grade, n = 47",26%
same,Most common TRAEs: nausea,"[1]; any grade, n = 47",38%
same,Most common TRAEs: pruritus,"[1]; any grade, n = 47",40%
same,Most common TRAEs: rash,"[1]; any grade, n = 47",38%
same,Most common TRAEs: stomatitis,"[1]; any grade, n = 47",53%
same,Patients who reported at least one treatment-related adverse event (TRAE),"[1]; by investigator determination, n = 47",98%
same,Patients with doses reduced for extended periods to levels as low as 15 mg,"[1]; human, in vivo",45%
same,Deaths on study due to treatment-related toxicity,[1]; n = 47,No patient died
same,Grade 3 or higher toxicity: diarrhea,[1]; n = 47,38%
same,Grade 3 or higher toxicity: fatigue,[1]; n = 47,21%
same,Grade 3 or higher toxicity: stomatitis,[1]; n = 47,11%
same,Grade 4 or 5 toxicities among the most common adverse events,[1]; n = 47,no grade 4 or 5 toxicities reported
same,Patients who discontinued CC-223 because of toxicity,[1]; n = 47,13%
same,Patients who experienced grade 3 or 4 treatment-related events,[1]; n = 47,79%
same,Patients who required dose adjustments due to toxicity,[1]; n = 47,85%
same,Toxicity causing discontinuation: decreased appetite,[1]; n = 47,6%
same,Toxicity causing discontinuation: diarrhea,[1]; n = 47,9%
same,Toxicity causing discontinuation: nausea,[1]; n = 47,4%
same,Toxicity requiring dose adjustments: diarrhea,[1]; n = 47,40%
same,Toxicity requiring dose adjustments: fatigue,[1]; n = 47,17%
same,Toxicity requiring dose adjustments: increased blood creatinine,[1]; n = 47,13%
same,Toxicity requiring dose adjustments: stomatitis,[1]; n = 47,17%
same,Patients requiring 2 dose reductions,"[1]; overall, n = 47",19 patients
same,Patients requiring more than 2 dose reductions,"[1]; overall, n = 47",4 patients
same,Mean time to first dose reduction,"[1]; overall, range 8–589 days",46 days
same,"Volume of tumors that progressed on rapamycin, after treatment",[2],remained stable or decreased in volume from baseline
